Measured values from ChEMBL document CHEMBL1140508, “Novel C2-purine position analogs of nitrobenzylmercaptopurine riboside as human equilibrative nucleoside transporter 1 inhibitors” (Bioorg Med Chem, 2007).

Target: T1, Equilibrative nucleoside transporter 1 (Homo sapiens, UniProt Q99808)
T1 sequence (Q99808 whole entry): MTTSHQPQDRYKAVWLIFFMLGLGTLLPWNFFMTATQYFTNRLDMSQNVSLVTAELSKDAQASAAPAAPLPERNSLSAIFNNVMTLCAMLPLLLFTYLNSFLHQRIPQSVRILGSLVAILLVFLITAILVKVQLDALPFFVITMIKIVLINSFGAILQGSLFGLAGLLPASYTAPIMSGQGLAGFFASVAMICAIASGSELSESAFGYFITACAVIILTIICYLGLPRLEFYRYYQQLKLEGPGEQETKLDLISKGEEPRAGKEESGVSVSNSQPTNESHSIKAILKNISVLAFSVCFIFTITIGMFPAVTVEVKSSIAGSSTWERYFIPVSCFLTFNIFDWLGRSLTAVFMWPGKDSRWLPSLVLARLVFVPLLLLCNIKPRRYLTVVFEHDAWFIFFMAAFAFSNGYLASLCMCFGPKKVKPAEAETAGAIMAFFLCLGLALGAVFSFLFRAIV
Assay: Displacement of SAENTA-fluorescein from human ENT1 in K562 cells after 45 mins by flow cytometry
Assay type: cell-based

| Compound | Ki [nM] |
| --- | --- |
| CNc1nc(SCc2ccc([N+](=O)[O-])cc2)c2ncn([C@@H]3O[C@H](CO)[C@@H](O)[C@H]3O)c2n1 | 24 |
| O=[N+]([O-])c1ccc(CSc2nc(NC3CC3)nc3c2ncn3[C@@H]2O[C@H](CO)[C@@H](O)[C@H]2O)cc1 | 25 |
| O=[N+]([O-])c1ccc(CSc2nc(Br)nc3c2ncn3[C@@H]2O[C@H](CO)[C@@H](O)[C@H]2O)cc1 | 11 |
| O=[N+]([O-])c1ccc(CSc2nc(NCc3ccccc3)nc3c2ncn3[C@@H]2O[C@H](CO)[C@@H](O)[C@H]2O)cc1 | 247 |
| CCNc1nc(SCc2ccc([N+](=O)[O-])cc2)c2ncn([C@@H]3O[C@H](CO)[C@@H](O)[C@H]3O)c2n1 | 24 |
| O=[N+]([O-])c1ccc(CSc2nc(NCCO)nc3c2ncn3[C@@H]2O[C@H](CO)[C@@H](O)[C@H]2O)cc1 | 86 |
| CCCCCNc1nc(SCc2ccc([N+](=O)[O-])cc2)c2ncn([C@@H]3O[C@H](CO)[C@@H](O)[C@H]3O)c2n1 | 357 |
| CCCNc1nc(SCc2ccc([N+](=O)[O-])cc2)c2ncn([C@@H]3O[C@H](CO)[C@@H](O)[C@H]3O)c2n1 | 193 |
| O=[N+]([O-])c1ccc(CSc2nc(NC3CCCC3)nc3c2ncn3[C@@H]2O[C@H](CO)[C@@H](O)[C@H]2O)cc1 | 125 |
| O=C(Nc1nc(SCc2ccc([N+](=O)[O-])cc2)c2ncn([C@@H]3O[C@H](CO)[C@@H](O)[C@H]3O)c2n1)c1ccccc1 | 315 |
| Nc1nc(SCc2ccc([N+](=O)[O-])cc2)c2ncn([C@@H]3O[C@H](CO)[C@@H](O)[C@H]3O)c2n1 | 1.1 |
| O=[N+]([O-])c1ccc(CSc2nc(F)nc3c2ncn3[C@@H]2O[C@H](CO)[C@@H](O)[C@H]2O)cc1 | 2.1 |

More lines, in order of falling Ki, values ahead:

| Ki [nM] | Compound |
| --- | --- |
| 429 | CN(C)c1nc(SCc2ccc([N+](=O)[O-])cc2)c2ncn([C@@H]3O[C@H](CO)[C@@H](O)[C@H]3O)c2n1 |
| 400 | O=[N+]([O-])c1ccc(CSc2nc(NC3CCCCC3)nc3c2ncn3[C@@H]2O[C@H](CO)[C@@H](O)[C@H]2O)cc1 |
| 394 | O=[N+]([O-])c1ccc(CSc2nc(NCCc3ccccc3)nc3c2ncn3[C@@H]2O[C@H](CO)[C@@H](O)[C@H]2O)cc1 |
| 325 | CCCCNc1nc(SCc2ccc([N+](=O)[O-])cc2)c2ncn([C@@H]3O[C@H](CO)[C@@H](O)[C@H]3O)c2n1 |
| 243 | O=[N+]([O-])c1ccc(CSc2nc(N(CCO)CCO)nc3c2ncn3[C@@H]2O[C@H](CO)[C@@H](O)[C@H]2O)cc1 |
| 34 | CC(=O)Nc1nc(SCc2ccc([N+](=O)[O-])cc2)c2ncn([C@@H]3O[C@H](CO)[C@@H](O)[C@H]3O)c2n1 |
| 33 | O=[N+]([O-])c1ccc(CSc2nc(NC3CCC3)nc3c2ncn3[C@@H]2O[C@H](CO)[C@@H](O)[C@H]2O)cc1 |
| 11 | O=[N+]([O-])c1ccc(CSc2nc(Cl)nc3c2ncn3[C@@H]2O[C@H](CO)[C@@H](O)[C@H]2O)cc1 |
| 11 | O=[N+]([O-])c1ccc(CSc2nc(I)nc3c2ncn3[C@@H]2O[C@H](CO)[C@@H](O)[C@H]2O)cc1 |
